Values quoted from earlier work, collected in PubChem BioAssay AID1259409 (Chemical Carcinogenesis Research Information System (CCRIS), 2018).

Test system: rodent chemically induced tumor inhibition, incidence and multiplicity
Test: CCRIS tumor inhibitor studies
Conditions: Dose [Inhibitor]: 0, Route [Inhibitor]: ORAL, Species: RAT, Strain/Sex: F344/MALE, Promoter: NONE USED

O=C(O)c1ccc(O)c(O)c1
tumour outcome (control, treated, inhibition, significance) (Carcinogen: AZOXYMETHANE, 25843-45-2, 1000 PPM IN DIET FOR 28 WK BEGINNING 1 WK POST CARCINOGEN TREATMENT (STUDY DURATION: 32 WK), Target Tissue: Type of Lesion: LARGE INTESTINE: ADENOMA, Dose [Carcinogen]: 15 MG/KG BW 1/WK FOR 3 WK): 2/20 (10%), 2/23 (9%), 10%, not significant | tumour outcome (control, treated, inhibition, significance) (Carcinogen: AZOXYMETHANE, 25843-45-2, 1000 PPM IN DIET FOR 28 WK BEGINNING 1 WK POST CARCINOGEN TREATMENT (STUDY DURATION: 32 WK), Target Tissue: Type of Lesion: SMALL INTESTINE: ADENOCARCINOMA, Dose [Carcinogen]: 15 MG/KG BW 1/WK FOR 3 WK): 6/20 (30%), 2/23 (9%), 70%, not significant | tumour outcome (control, treated, inhibition, significance) (Carcinogen: AZOXYMETHANE, 25843-45-2, 1000 PPM IN DIET FOR 28 WK BEGINNING 1 WK POST CARCINOGEN TREATMENT (STUDY DURATION: 32 WK), Target Tissue: Type of Lesion: SMALL INTESTINE: ADENOMA, Dose [Carcinogen]: 15 MG/KG BW 1/WK FOR 3 WK): 1/20 (5%), 1/23 (4%), 20%, not significant | tumour outcome (control, treated, inhibition, significance) (Carcinogen: DIETHYLNITROSAMINE, 55-18-5, 500 PPM IN DIET BEGINNING 1 WK PRIOR TO CARCINOGEN AND CONTINUING FOR 7 WK FOLLOWED BY BASAL DIET FOR 30 WK (STUDY DU, Target Tissue: Type of Lesion: LIVER: ADENOMA OR CARCINOMA, Dose [Carcinogen]: 40 PPM IN DRINKING WATER FOR 5 WK BEGINNING AT 7 WK OF AGE): 18/18 (100%), 12/17 (71%), 29%, p=0.02 | tumour outcome (control, treated, inhibition, significance) (Carcinogen: DIETHYLNITROSAMINE, 55-18-5, 500 PPM IN DIET FOR 7 WK BEGINNING 1 WK PRIOR TO CARCINOGEN TREATMENT (STUDY DURATION: 37 WK), Target Tissue: Type of Lesion: LIVER: ADENOMA, Dose [Carcinogen]: 40 PPM IN DRINKING WATER FOR 5 WK): 89%, 59%, 34%, not significant | tumour outcome (control, treated, inhibition, significance) (Carcinogen: DIETHYLNITROSAMINE, 55-18-5, 500 PPM IN DIET FOR 7 WK BEGINNING 1 WK PRIOR TO CARCINOGEN TREATMENT (STUDY DURATION: 37 WK), Target Tissue: Type of Lesion: LIVER: CARCINOMA, Dose [Carcinogen]: 40 PPM IN DRINKING WATER FOR 5 WK): 89%, 71%, 20%, not significant | tumour outcome (control, treated, inhibition, significance) (Carcinogen: DIETHYLNITROSAMINE, 55-18-5, 500 PPM IN DIET FOR 30 WK BEGINNING 1 WK POST CARCINOGEN TREATMENT (STUDY DURATION: 37 WK), Target Tissue: Type of Lesion: LIVER: ADENOMA, Dose [Carcinogen]: 40 PPM IN DRINKING WATER FOR 5 WK): 89%, 60%, 33%, p<0.05 | tumour outcome (control, treated, inhibition, significance) (Carcinogen: DIETHYLNITROSAMINE, 55-18-5, 1000 PPM IN DIET FOR 7 WK BEGINNING 1 WK PRIOR TO CARCINOGEN TREATMENT (STUDY DURATION: 37 WK), Target Tissue: Type of Lesion: LIVER: ADENOMA, Dose [Carcinogen]: 40 PPM IN DRINKING WATER FOR 5 WK): 89%, 37%, 58%, p<0.05 | tumour outcome (control, treated, inhibition, significance) (Carcinogen: DIETHYLNITROSAMINE, 55-18-5, 1000 PPM IN DIET FOR 30 WK BEGINNING 1 WK POST CARCINOGEN TREATMENT (STUDY DURATION: 37 WK), Target Tissue: Type of Lesion: LIVER: ADENOMA, Dose [Carcinogen]: 40 PPM IN DRINKING WATER FOR 5 WK): 89%, 68%, 24%, not significant | tumour outcome (control, treated, inhibition, significance) (Carcinogen: DIETHYLNITROSAMINE, 55-18-5, 1000 PPM IN DIET FOR 30 WK BEGINNING 1 WK POST CARCINOGEN TREATMENT (STUDY DURATION: 37 WK), Target Tissue: Type of Lesion: LIVER: CARCINOMA, Dose [Carcinogen]: 40 PPM IN DRINKING WATER FOR 5 WK): 89%, 32%, 64%, p<0.05 | tumour outcome (control, treated, inhibition, significance) (Carcinogen: N-BUTYL-N-(4-HYDROXYBUTYL)NITROSAMINE, 3817-11-6, 500 PPM IN DIET FOR 8 WK BEGINNING 1 WK PRIOR TO CARCINOGEN TREATMENT (STUDY DURATION: 41 WK), Target Tissue: Type of Lesion: BLADDER: CARCINOMA, Dose [Carcinogen]: 0.05% IN DRINKING WATER FOR 6 WK): 17/22 (77%), 13/22 (59%), 23%, not significant | tumour outcome (control, treated, inhibition, significance) (Carcinogen: N-BUTYL-N-(4-HYDROXYBUTYL)NITROSAMINE, 3817-11-6, 500 PPM IN DIET FOR 8 WK BEGINNING 1 WK PRIOR TO CARCINOGEN TREATMENT (STUDY DURATION: 41 WK), Target Tissue: Type of Lesion: BLADDER: PAPILLOMA, Dose [Carcinogen]: 0.05% IN DRINKING WATER FOR 6 WK): 1/22 (5%), 3/22 (14%), -180%, not significant | tumour outcome (control, treated, inhibition, significance) (Carcinogen: N-BUTYL-N-(4-HYDROXYBUTYL)NITROSAMINE, 3817-11-6, 500 PPM IN DIET FOR 33 WK BEGINNING 1 WK POST CARCINOGEN TREATMENT (STUDY DURATION: 41 WK), Target Tissue: Type of Lesion: BLADDER: CARCINOMA, Dose [Carcinogen]: 0.05% IN DRINKING WATER FOR 6 WK): 17/22 (77%), 13/25 (52%), 32%, not significant | tumour outcome (control, treated, inhibition, significance) (Carcinogen: N-BUTYL-N-(4-HYDROXYBUTYL)NITROSAMINE, 3817-11-6, 500 PPM IN DIET FOR 33 WK BEGINNING 1 WK POST CARCINOGEN TREATMENT (STUDY DURATION: 41 WK), Target Tissue: Type of Lesion: BLADDER: PAPILLOMA, Dose [Carcinogen]: 0.05% IN DRINKING WATER FOR 6 WK): 1/22 (5%), 4/25 (16%), -220%, not significant | tumour outcome (control, treated, inhibition, significance) (Carcinogen: N-BUTYL-N-(4-HYDROXYBUTYL)NITROSAMINE, 3817-11-6, 1000 PPM IN DIET FOR 8 WK BEGINNING 1 WK PRIOR TO CARCINOGEN TREATMENT (STUDY DURATION: 41 WK), Target Tissue: Type of Lesion: BLADDER: CARCINOMA, Dose [Carcinogen]: 0.05% IN DRINKING WATER FOR 6 WK): 17/22 (77%), 9/22 (41%), 47%, p<0.03 | tumour outcome (control, treated, inhibition, significance) (Carcinogen: N-BUTYL-N-(4-HYDROXYBUTYL)NITROSAMINE, 3817-11-6, 1000 PPM IN DIET FOR 8 WK BEGINNING 1 WK PRIOR TO CARCINOGEN TREATMENT (STUDY DURATION: 41 WK), Target Tissue: Type of Lesion: BLADDER: PAPILLOMA, Dose [Carcinogen]: 0.05% IN DRINKING WATER FOR 6 WK): 1/22 (5%), 0/22 (0%), 100%, not significant | tumour outcome (control, treated, inhibition, significance) (Carcinogen: N-BUTYL-N-(4-HYDROXYBUTYL)NITROSAMINE, 3817-11-6, 1000 PPM IN DIET FOR 33 WK BEGINNING 1 WK POST CARCINOGEN TREATMENT (STUDY DURATION: 41 WK), Target Tissue: Type of Lesion: BLADDER: CARCINOMA, Dose [Carcinogen]: 0.05% IN DRINKING WATER FOR 6 WK): 17/22 (77%), 12/25 (48%), 38%, p<0.05 | tumour outcome (control, treated, inhibition, significance) (Carcinogen: N-BUTYL-N-(4-HYDROXYBUTYL)NITROSAMINE, 3817-11-6, 1000 PPM IN DIET FOR 33 WK BEGINNING 1 WK POST CARCINOGEN TREATMENT (STUDY DURATION: 41 WK), Target Tissue: Type of Lesion: BLADDER: PAPILLOMA, Dose [Carcinogen]: 0.05% IN DRINKING WATER FOR 6 WK): 1/22 (5%), 2/25 (8%), -60%, not significant | tumour outcome (control, treated, inhibition, significance) (Carcinogen: N-BUTYL-N-(4-HYDROXYBUTYL)NITROSAMINE, 3817-11-6, 2000 PPM IN DIET FOR 8 WK BEGINNING 1 WK PRIOR TO CARCINOGEN TREATMENT (STUDY DURATION: 41 WK), Target Tissue: Type of Lesion: BLADDER: CARCINOMA, Dose [Carcinogen]: 0.05% IN DRINKING WATER FOR 6 WK): 17/22 (77%), 8/25 (32%), 58%, p<0.005 | tumour outcome (control, treated, inhibition, significance) (Carcinogen: N-BUTYL-N-(4-HYDROXYBUTYL)NITROSAMINE, 3817-11-6, 2000 PPM IN DIET FOR 8 WK BEGINNING 1 WK PRIOR TO CARCINOGEN TREATMENT (STUDY DURATION: 41 WK), Target Tissue: Type of Lesion: BLADDER: PAPILLOMA, Dose [Carcinogen]: 0.05% IN DRINKING WATER FOR 6 WK): 1/22 (5%), 3/25 (12%), -140%, not significant
